What was measured:
Test in all cases: Bliss excess, mean over the matrix (fraction); higher = more synergy
SN12C (Kidney Carcinoma) = test system: SN12C (Kidney Carcinoma)
In short: (§1)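 After 24 hours at 37°C and 5% CO2 in 1536-well plates, cells in DMEM/F12 or RPMI plus 10% FBS received two-drug dose matrices for 72 hours. Viability came from CellTiter-Glo 2.0 luminescence and was scaled as inhibition, anchored at 0 by vehicle wells and at 1 by blank wells. Combination Emax is taken as the second-highest inhibition in the matrix, and Bliss excess as the observed combination effect less EA + EB − EA·EB, with EA and EB the single-agent effects.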

[1] = test system: OCI-AML2 (Acute Myeloid Leukemia)
In short: as §1

[2] = test system: LS-513 (Colorectal Carcinoma)
In short: as §1

DSH1 (Bladder Carcinoma) = test system: DSH1 (Bladder Carcinoma)
In short: as §1

[3] = test system: MFH-ino (Other Solid Carcinomas)
In short: as §1

SK-N-FI (Neuroblastoma) = test system: SK-N-FI (Neuroblastoma)
In short: as §1

[4] = test system: DOV13 (Ovarian Carcinoma)
In short: as §1

[5] = test system: KARPAS-620 (Plasma Cell Myeloma)
In short: as §1

NCI-H2595 (Mesothelioma) = test system: NCI-H2595 (Mesothelioma)
In short: as §1

[6] = test system: KARPAS-1106P (B-Cell Non-Hodgkin's Lymphoma)
In short: as §1

[7] = test system: IHH-4 (Thyroid Gland Carcinoma)
In short: as §1

[8] = test system: NCI-H211 (Small Cell Lung Carcinoma)
In short: as §1

[9] = test system: KATOIII (Gastric Carcinoma)
In short: as §1

[10] = test system: G-292-Clone-A141B1 (Osteosarcoma)
In short: as §1

SMILES | Bliss excess (SN12C (Kidney Carcinoma)) | Bliss excess [1] | Bliss excess [2] | Bliss excess (DSH1 (Bladder Carcinoma)) | Bliss excess [3] | Bliss excess (SK-N-FI (Neuroblastoma)) | Bliss excess [4] | Bliss excess [5] | Bliss excess (NCI-H2595 (Mesothelioma)) | Bliss excess [6] | Bliss excess [7] | Bliss excess [8] | Bliss excess [9] | Bliss excess [10]
O=C(c1cc(Cc2n[nH]c(=O)c3ccccc23)ccc1F)N1CCN(C(=O)C2CC2)CC1 [Olaparib] + Cc1c2c(nn1C)CSCc1cc(n(C)n1)CSc1cc(c3ccccc3c1)OCCCc1c(C(=O)O)n(C)c3c-2c(Cl)ccc13 [AZD5991] (first compound max 10 µM, 7x7, partner max 1 µM) | -0.053 | 0.0775 | -0.0082 | -0.0097 | -0.069 | -0.0321 | -0.0158 | 0.0121 | -0.0396 | 0.0403 | -0.0093 | 0.024 | -0.0852 | -0.0462
N#Cc1cnc(Nc2cc(NC[C@H]3CNCCO3)c(C(F)(F)F)cn2)cn1 [SRA737] + Nc1ccn([C@@H]2O[C@H](CO)[C@@H](O)C2(F)F)c(=O)n1 [Gemcitabine] (first compound max 10 µM, 7x7, partner max 0.3 µM) | 0.0884 |  | -0.0189 | 0.0195 | -0.0148 | 0.0476 | 0.0821 | 0.151 | 0.0252 | 0.0126 | 0.0649 | 0.0372 | -0.0794 | 0.0405
N#Cc1cnc(Nc2cc(NC[C@H]3CNCCO3)c(C(F)(F)F)cn2)cn1 [SRA737] + CCc1c2c(nc3ccc(O)cc13)-c1cc3c(c(=O)n1C2)COC(=O)[C@]3(O)CC [SN-38] (first compound max 10 µM, 7x7, partner max 0.3 µM) | -0.0485 | -0.0348 | -0.114 | -0.0809 | -0.0461 | -0.121 | -0.0469 | 0.0655 | -0.0762 | -0.0918 | -0.0117 | -0.0649 | -0.0046 | 0.0099
CC1(C)CCC(CN2CCN(c3ccc(C(=O)NS(=O)(=O)c4ccc(NCC5CCOCC5)c([N+](=O)[O-])c4)c(Oc4cnc5[nH]ccc5c4)c3)CC2)=C(c2ccc(Cl)cc2)C1 [Venetoclax] + CS(=O)(=O)CCNCc1ccc(-c2ccc3ncnc(Nc4ccc(OCc5cccc(F)c5)c(Cl)c4)c3c2)o1 [Lapatinib] (first compound max 1 µM, 7x7, partner max 10 µM) | -0.0179 | 0.0327 | -0.0203 | -0.021 | -0.0699 | -0.0126 | -0.0228 | 0.0569 | -0.0574 | -0.0183 | -0.0082 | -0.0037 | -0.0386 | -0.045
CN(CCO)CC[C@H](CSc1ccccc1)Nc1ccc(S(=O)(=O)NC(=O)c2ccc(N3CCC([C@@H](O)c4ccccc4-c4ccc(Cl)cc4)CC3)cc2)cc1S(=O)(=O)C(F)(F)F [AZD4320] + CS(=O)(=O)CCNCc1ccc(-c2ccc3ncnc(Nc4ccc(OCc5cccc(F)c5)c(Cl)c4)c3c2)o1 [Lapatinib] (first compound max 1 µM, 7x7, partner max 10 µM) | -0.0385 | 0.0843 | 0.0667 | 0.0511 | -0.0732 | 0.057 | 0.0488 | 0.0697 | 0.0034 | -0.0212 | -0.0096 | 0.0409 | -0.0407 | 0.0467
CN(CCO)CC[C@H](CSc1ccccc1)Nc1ccc(S(=O)(=O)NC(=O)c2ccc(N3CCC([C@@H](O)c4ccccc4-c4ccc(Cl)cc4)CC3)cc2)cc1S(=O)(=O)C(F)(F)F [AZD4320] + Nc1ccn([C@@H]2O[C@H](CO)[C@@H](O)C2(F)F)c(=O)n1 [Gemcitabine] (first compound max 1 µM, 7x7, partner max 0.3 µM) | 0.0195 | 0.0007 | -0.0318 | 0.0381 | -0.0252 | 0.0077 | -0.0366 | -0.0168 | -0.0542 | -0.0009 | 0.0132 | 0.0135 | 0.0213 | -0.0015
C=CCn1c(=O)c2cnc(Nc3ccc(N4CCN(C)CC4)cc3)nc2n1-c1cccc(C(C)(C)O)n1 [AZD1775] + Nc1ccn([C@@H]2O[C@H](CO)[C@@H](O)C2(F)F)c(=O)n1 [Gemcitabine] (first compound max 1 µM, partner max 0.3 µM) | 0.0719 | 0.0415 | -0.04 | -0.0833 | -0.0087 | -0.0167 | 0.016 | 0.026 | -0.0765 | 0.0085 | 0.0306 | 0.0129 | -0.0196 | -0.0405
C[C@@H](Oc1cc(-c2cnn(C3CCNCC3)c2)cnc1N)c1c(Cl)ccc(F)c1Cl [Crizotinib] + CC1=C(C(=CC=C1)Cl)NC(=O)C2=CN=C(S2)NC3=CC(=NC(=N3)C)N4CCN(CC4)CCO [Dasatinib] (first compound max 10 µM, 7x7, partner max 2 µM) | -0.0384 | -0.0271 | -0.0485 | -0.0536 | 0.0577 | -0.0425 | 0.067 | 0.0032 | 0.0519 | -0.026 | 0.0456 | -0.0089 | -0.0263 | 0.028
O=C(c1cc(Cc2n[nH]c(=O)c3ccccc23)ccc1F)N1CCN(C(=O)C2CC2)CC1 [Olaparib] + CC1(C)CCC(CN2CCN(c3ccc(C(=O)NS(=O)(=O)c4ccc(NCC5CCOCC5)c([N+](=O)[O-])c4)c(Oc4cnc5[nH]ccc5c4)c3)CC2)=C(c2ccc(Cl)cc2)C1 [Venetoclax] (first compound max 10 µM, 7x7, partner max 1 µM) | -0.0534 | 0.0964 | -0.0498 | -0.0401 | -0.0622 | -0.0527 | -0.0322 | 0.003 | -0.0577 | -0.0169 | -0.0118 | 0.0865 | -0.0146 | -0.0566
Cc1c2c(nn1C)CSCc1cc(n(C)n1)CSc1cc(c3ccccc3c1)OCCCc1c(C(=O)O)n(C)c3c-2c(Cl)ccc13 [AZD5991] + CS(=O)(=O)CCNCc1ccc(-c2ccc3ncnc(Nc4ccc(OCc5cccc(F)c5)c(Cl)c4)c3c2)o1 [Lapatinib] (first compound max 1 µM, 7x7, partner max 10 µM) | 0.0035 | 0.0415 | 0.0305 | 0.0013 | -0.0513 | -0.0808 | 0.0072 | 0.0054 | -0.0398 | 0.0482 | 0.011 | -0.0118 | -0.0787 | -0.0185
N#Cc1cnc(Nc2cc(NC[C@H]3CNCCO3)c(C(F)(F)F)cn2)cn1 [SRA737] + C=CCn1c(=O)c2cnc(Nc3ccc(N4CCN(C)CC4)cc3)nc2n1-c1cccc(C(C)(C)O)n1 [AZD1775] (first compound max 10 µM, partner max 1 µM) | -0.0184 | 0.071 | 0.0476 | -0.0441 | -0.013 | 0.0703 | 0.132 | 0.133 | -0.0688 | 0.0143 | 0.14 | 0.169 | -0.0327 | -0.009
Cc1c2c(nn1C)CSCc1cc(n(C)n1)CSc1cc(c3ccccc3c1)OCCCc1c(C(=O)O)n(C)c3c-2c(Cl)ccc13 [AZD5991] + CC(=O)O[C@H]1C(=O)[C@@]2(C)[C@H]([C@H](OC(=O)c3ccccc3)[C@]3(O)C[C@H](OC(=O)[C@H](O)[C@@H](NC(=O)c4ccccc4)c4ccccc4)C(C)=C1C3(C)C)[C@]1(OC(C)=O)CO[C@@H]1C[C@@H]2O [Paclitaxel] (first compound max 1 µM, 7x7, partner max 3 µM) | 0.0104 | -0.0046 | -0.0216 | 0.0523 | -0.0321 | -0.0177 | -0.0492 | -0.0174 | -0.0504 | 0.132 | -0.0341 | 0.0016 | -0.0298 | 0.0565
C[C@@H]1COCCN1c1cc(C2([S@](C)(=N)=O)CC2)nc(-c2ccnc3[nH]ccc23)n1 [AZD6738] + Nc1ccn([C@@H]2O[C@H](CO)[C@@H](O)C2(F)F)c(=O)n1 [Gemcitabine] (first compound max 10 µM, 7x7, partner max 0.3 µM) | 0.0577 | 0.0351 | -0.0336 | 0.0108 | -0.0585 | 0.0769 | 0.0205 | 0.135 | 0.0326 | 0.0614 | 0.0816 | 0.0304 | 0.0057 | 0.0421
CN(CCO)CC[C@H](CSc1ccccc1)Nc1ccc(S(=O)(=O)NC(=O)c2ccc(N3CCC([C@@H](O)c4ccccc4-c4ccc(Cl)cc4)CC3)cc2)cc1S(=O)(=O)C(F)(F)F [AZD4320] + CC(=O)O[C@H]1C(=O)[C@@]2(C)[C@H]([C@H](OC(=O)c3ccccc3)[C@]3(O)C[C@H](OC(=O)[C@H](O)[C@@H](NC(=O)c4ccccc4)c4ccccc4)C(C)=C1C3(C)C)[C@]1(OC(C)=O)CO[C@@H]1C[C@@H]2O [Paclitaxel] (first compound max 1 µM, 7x7, partner max 3 µM) | 0.153 | -0.0016 | -0.0136 | 0.163 | 0.0474 | -0.025 | 0.0136 | 0.0111 | 0.0192 | 0.0929 | -0.0267 | 0.0259 | 0.168 | 0.157
Cc1nc(-c2cn3c(n2)-c2ccc(-c4cnn(C(C)(C)C(N)=O)c4)cc2OCC3)n(C(C)C)n1 [Taselisib] + O=C(Nc1ccc2[nH]nc(-c3ccncc3)c2c1)[C@@H]1CCN(CC(=O)N2CCN(c3ccc(-c4ncccn4)cc3)CC2)C1 [SCH772984] (first compound max 10 µM, 7x7, partner max 5 µM) | 0.0003 | 0.132 | -0.0377 | 0.0051 | -0.0018 | 0.0465 | 0.0568 | 0.116 | -0.0324 | 0.0391 | 0.0056 | 0.126 | -0.0189 | -0.0258
C[C@@H]1COCCN1c1cc(C2([S@](C)(=N)=O)CC2)nc(-c2ccnc3[nH]ccc23)n1 [AZD6738] + C1CC(C1)(C(=O)[O-])C(=O)[O-].N.N.[Pt+2] [Carboplatin] (first compound max 10 µM, 7x7, partner max 10 µM) | -0.026 | -0.0318 | -0.0225 | -0.0559 | -0.0397 | -0.049 | -0.0236 | -0.0135 | -0.0413 | -0.0247 | 0.0159 | -0.0292 | -0.0879 | 0.0001
C[C@@H](Oc1cc(-c2cnn(C3CCNCC3)c2)cnc1N)c1c(Cl)ccc(F)c1Cl [Crizotinib] + Cn1cnc2c(F)c(Nc3ccc(Br)cc3Cl)c(C(=O)NOCCO)cc21 [Selumetinib] (first compound max 10 µM, 7x7, partner max 10 µM) | -0.0062 | -0.0036 | -0.0167 | -0.117 | -0.026 | 0.0321 | -0.0732 | 0.0729 | -0.064 | 0.0052 | -0.0246 | -0.0327 | -0.0081 | -0.0223

Reference: the supplement of paper PMC11061612
